In US9181275B2, “Mercaptoamidine derivatives and methods of use” (AbbVie Inc., priority 2011, dated 2015):

What was measured:
[1] = target: native H3 receptors from rat cerebral cortices (Rattus norvegicus (Rat), UniProt Q9QYN8); experiment: H3 receptor competition binding with [3H]-N-α-methylhistamine, rat cerebral cortex membranes; conditions: [3H]-N-α-methylhistamine competition binding
Description: Aliquots were frozen at −70° C. until needed.
Membrane preparations were incubated with [^3H]-N-α-methylhistamine (0.5-1.0 nM) in the presence or absence of increasing concentrations of ligands for H3 receptor competition binding. The binding incubations were conducted in a final volume of 0.5 mL TE buffer at 25° C. and were terminated after 30 minutes. Thioperamide (30 μM) was used to define non-specific binding. All binding reactions were terminated by filtration under vacuum onto polyethylenimine (0.3%) presoaked Unifilters (Perkin Elmer Life Sciences) or Whatman GF/B filters followed by three brief washes with 2 mL of ice-cold TE buffer. Bound radiolabel was determined by liquid scintillation counting. For all of the radioligand competition binding assays, IC50 values and Hill slopes were determined by Hill transformation of the data and pKi values were determined by the Cheng-Prusoff equation.

[2] = system: locomotor stimulation induced by amphetamine; conditions: animals; Clapham J., et al. 1994; cited from earlier work

Chain of native H3 receptors from rat cerebral cortices (Q9QYN8 whole entry): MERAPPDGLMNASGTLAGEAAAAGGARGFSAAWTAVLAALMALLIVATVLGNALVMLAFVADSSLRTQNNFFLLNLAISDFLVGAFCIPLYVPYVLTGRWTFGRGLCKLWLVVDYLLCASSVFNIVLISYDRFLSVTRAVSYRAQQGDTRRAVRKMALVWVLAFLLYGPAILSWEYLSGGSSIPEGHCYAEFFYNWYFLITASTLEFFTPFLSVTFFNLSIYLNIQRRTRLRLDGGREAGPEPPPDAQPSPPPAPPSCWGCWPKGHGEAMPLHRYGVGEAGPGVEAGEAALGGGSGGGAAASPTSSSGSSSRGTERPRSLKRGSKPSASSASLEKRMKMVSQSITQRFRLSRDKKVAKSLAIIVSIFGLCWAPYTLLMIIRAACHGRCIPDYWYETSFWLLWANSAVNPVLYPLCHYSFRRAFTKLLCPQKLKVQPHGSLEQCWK

CC1=C(c2ccc(OCCCN3CCCCC3)cc2)SC2=NCc3ccccc3CN21 [Example 2, 3-methyl-2-[4-(3-piperidin-1-ylpropoxy)phenyl]-5,10-dihydro[1,3]thiazolo[3,2-b][2,4]benzodiazepine]
Ki [1]: 0.05 nM
rat cortex (pKi) [1]: 10.3

CC1=C(c2ccc(OCCCN3CCC[C@H]3C)cc2)SC2=NCc3ccccc3CN21 [Example 3, 3-methyl-2-(4-{3-[(2R)-2-methylpyrrolidin-1-yl]propoxy}phenyl)-5,10-dihydro[1,3]thiazolo[3,2-b][2,4]benzodiazepine]
Ki [1]: 0.02 nM
rat cortex (pKi) [1]: 10.7

CC1=C(c2ccc(OCCCN3CCOCC3)cc2)SC2=NCc3ccccc3CN21 [Example 4, 3-methyl-2-[4-(3-morpholin-4-ylpropoxy)phenyl]-5,10-dihydro[1,3]thiazolo[3,2-b][2,4]benzodiazepine]
Ki [1]: 0.324 nM
rat cortex (pKi) [1]: 9.49

S=C(NC1CCCCC1)N1CCC(c2cnc[nH]2)CC1 [thioperamide]
effect on amphetamine-induced locomotor stimulation [2]: suppresses the locomotor stimulation induced by amphetamine
